Measurements published in patent US11214562B2, “Cyclohexyl benzamide compounds” (Eli Lilly and Company, priority 2016, dated 2022).

Columns and labels:
human GPR142 = molecular target: T1, human GPR142 (Homo sapiens, UniProt Q7Z601); test: GPR142 agonist effect as measured by IP-1 assay (IP-One HTRF); format: cell-based
T1 construct: expressed in transfected cells; host or cells: HEK293 (kept under G418 selection)
T1 sequence (Q7Z601 1-462): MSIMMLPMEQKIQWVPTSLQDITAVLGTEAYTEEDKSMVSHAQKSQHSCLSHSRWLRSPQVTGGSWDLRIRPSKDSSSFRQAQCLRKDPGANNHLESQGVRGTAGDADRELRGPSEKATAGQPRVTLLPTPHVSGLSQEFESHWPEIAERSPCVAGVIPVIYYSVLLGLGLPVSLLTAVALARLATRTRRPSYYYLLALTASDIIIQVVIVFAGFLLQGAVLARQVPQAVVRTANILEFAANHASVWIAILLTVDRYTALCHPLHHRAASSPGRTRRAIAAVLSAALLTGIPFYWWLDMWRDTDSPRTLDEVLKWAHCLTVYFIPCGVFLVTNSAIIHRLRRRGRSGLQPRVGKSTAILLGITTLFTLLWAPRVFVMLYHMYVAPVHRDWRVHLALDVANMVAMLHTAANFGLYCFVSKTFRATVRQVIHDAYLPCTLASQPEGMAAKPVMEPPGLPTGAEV
Method: Biological Assays GPR142 Agonist Effect as Measured by IP-1 Assay
HEK293 cells expressing human GPR142 are maintained in DMEM supplemented with 10% FBS and 800 μg/ml G418 (Geneticin®) at 37° C. and 5% CO2. Plate the cells in 384 well plates at 5000 cells per well and allow 18 hrs for attachment. Add the test compound at varying concentrations ranging from 30 μM to 1 nM. Incubate the cells for 1 hr. IP-1 measurements are performed using an IP-One HTRF® assay kit (Cisbio) according to manufacturer's protocol using an assay buffer containing 1×HBSS (+Ca, +Mg), 0.1% BSA, 50 mM LiCl and 20 mM HEPES, pH 7.2. Stop the reaction by the addition of IP1-d2 (IP-1 coupled to an organic HTRF acceptor) followed by cryptate solution (http://www.htrf.com/usa/htrf-chemistry). Incubate the plates at 25° C. for 1 hr. Read the fluorescence in an Envision instrument at 665 nm and 620 nm wavelength. Calculate the ratio of 665 nm/620 nm fluorescence and convert to IP-1 levels using an IP-1 standard curve. The data is fit to a 4 parameter-fit logistics to determine EC50 values.

GPR142 = molecular target: T2, GPR142 (Mus musculus, UniProt Q7TQN9); test: Intraperitoneal glucose tolerance test (IPGTT); format: in vivo; settings: male C57BL/6 mice, oral dose 90 min prior to 2 g/kg i.p. glucose challenge
T2 construct: from tissue; host or cells: whole animal, male C57BL/6 mice
T2 sequence (Q7TQN9 1-365): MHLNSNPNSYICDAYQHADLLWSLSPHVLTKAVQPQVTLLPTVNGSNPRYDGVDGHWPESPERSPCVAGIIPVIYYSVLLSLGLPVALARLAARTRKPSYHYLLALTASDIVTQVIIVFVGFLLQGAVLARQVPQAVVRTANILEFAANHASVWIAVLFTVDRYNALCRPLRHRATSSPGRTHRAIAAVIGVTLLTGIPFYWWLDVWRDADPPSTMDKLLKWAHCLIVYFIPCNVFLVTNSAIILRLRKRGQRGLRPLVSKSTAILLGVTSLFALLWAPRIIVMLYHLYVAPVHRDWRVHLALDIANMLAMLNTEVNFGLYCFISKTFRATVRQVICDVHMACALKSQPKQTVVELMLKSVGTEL
Text: Intraperitoneal Glucose Tolerance Tests (IPGTT)
The IPGTT assay is used to examine the ability of a compound to activate GPR142 in vivo resulting in anti-diabetic efficacy, i.e. reduction in plasma glucose levels. Male C57BL/6 mice (8-10 weeks of age) are fed normal rodent chow diet and water ad libitum. On the night before the study, fast the animals overnight in clean cages. On the morning of the study, orally dose the animals with either vehicle or a test compound at the indicated doses 90 min prior to the glucose challenge (2 g/kg) by intraperitoneal injection. Determine the blood glucose levels from tail bleeds taken immediately prior to compound dosing (−90 min) and 0, 15, 30, and 60 min after glucose challenge using handheld glucometers. Use the blood glucose profile from t=0 to t=60 min to calculate an area under the curve (AUC) for each treatment. Calculate the percent glucose lowering. The AUC is calculated for each treatment group with respect to the AUC of vehicle group. A compound with a reduction in glucose AUC (P<0.05) is considered positive in the assay.

EC50 (human GPR142; HEK293 cells expressing human GPR142, 1 hr incubation, IP-1 HTRF, read-out: hGPR142 IP1 EC50): 14.4 nM
hGPR142 IP1 relative efficacy (human GPR142; HEK293 cells expressing human GPR142, IP-1 HTRF): 110%
Compound: Cc1ncn(C)c1-c1nnc([C@H]2CCC[C@@H](N(C)C(=O)c3cccc(Cl)c3)C2)[nH]1 [Example 1]
IPGTT outcome (reduction in glucose AUC, P<0.05, is positive) (GPR142): positive
ED50 (glucose AUC lowering in IPGTT) (GPR142; AUC t=0 to 60 min): 0.25 mpk
